For 2 molecules, IC50 results are on record in PubChem BioAssay AID2337 (Sanford-Burnham Center for Chemical Genomics, 2010).

The test system of this assay is TNFa-induced NF-kB reporter cells, inhibition. The assay is described as follows: TNFa-triggered NF-kB activation inhibitors, SAR follow-up, cell-based, revised (AID 2337).

For the molecule `CC1Sc2ccc(S(=O)(=O)N3CCC(C(=O)Nc4ccc(Cl)cc4)CC3)cc2NC1=O` (configuration not stated), the concentration for half-maximal inhibition (IC50) (in general, the point on the concentration scale where inhibition reaches its midpoint) was 3.15 µM.
With `O=C(Nc1nc2c(F)cc(F)cc2s1)c1ccc([N+](=O)[O-])o1`, the IC50 was 19.7 µM.
